# How the values were obtained:
# [1] = Reoxidation of reduced BLG in air; assay type: physicochemical; settings: reduced by either NTS or DTT
# Method: Two sulfhydryl (SH) groups can often spontaneously react to form an S—S bond in the presence of oxygen. […] For example, the reduced form of β-lactoglobulin (BLG), a major allergen of cow's milk, is fully reoxidized after 3 days in air whether reduced by either NTS or DTT. This invention provides for the stabilization of proteins, including allergenic proteins reduced by the NTS at 4° C. and by DTT at 55° C. Other physiological reductants such as lipoic acid may also be used to initially reduce the proteins. In general, the reduction reactions were conducted as described in previous examples. The proteins are stabilized in that the SH groups of these proteins and allergens are blocked and prevented from reoxidizing to form S—S bonds. This stabilization is maintained for at least three months, preferably at least six months and more preferably for longer than one year. Reduced BLG was stabilized by reaction with the physiological disulfides, cystamine and oxidized glutathione (GSSG) and also by heat. Other physiological disulfides such as homoglutathione and some microbial disulfides would also be suitable. Besides BLG, examples are provided for milk, peanut and pollen extracts. However, other reduced proteins such as those of egg, soy, rice, wheat and barley may also be stabilized by reaction with the same physiological disulfides and by treatment with heat. […]
# pepsin [2] = assay: Pepsin assay in simulated gastric fluid; assay type: in vitro ADME, porcine; settings: oxidized BLG in milk, SGF 37° C.
# Method: BLG, 640 μg, or milk, 1 mg protein (i.e., about 30 μl), was incubated with or without the thioredoxin system (NTS) at either 4° C. […] The BLG, 320 μg, or milk, 500 μg protein, was then treated in 200 μl of simulated gastric fluid (SGF) as described by Astwood, J. D. et al. (1996), “Stability of food allergens to digestion in vitro”, Nature Biotechnol. 14:1269-1273. SGF consists of 0.32% pepsin (w/v) and 30 mM NaCl adjusted at pH 1.2 with HCl (Board of Trustees (ed.) 1995, Simulated Gastric Fluid, TS., pp. 2053 in the United States Pharmacopeia 23, The National Formulary 18. United States Pharmacopeial Convention, Inc. Rockville, Md.). The reaction mixture was incubated at 37° C. and stopped by adding 0.375-fold volume of 160 mM Na2CO3 (ca. pH 7) after 0, 0.25, 1, 2, 4, 8, 15, 30 and 60 min incubation. The protein mixture was then subjected to SDS-PAGE (15% gels) and stained for protein with Coomassie blue as described below. As indicated, the allergenicity of the digested samples was determined by skin test analysis.
# atopic dogs = assay: Skin tests in atopic dogs (wheal area); settings: dog, in vivo
# Method: Newborn pups from two litters of the atopic dog colony, designated CGB and GCB, were injected subcutaneously at day 1 with 1 μg each of wheat, cows milk and beef extract (Miles, Inc., Elkhart, Ind., described in Example 33) in 0.2 ml of alum. A third litter, designated CBB, was injected with a soy extract (Miles, Inc. described in Example 33) in addition to these same allergens. Procedures for the sensitization, testing and maintenance of the pups were substantially the same as those described in Example 36.
# About 3 min prior to skin testing, each dog received 4-5 ml of filtered 0.5% Evans blue dye solution (equivalent to 0.2 ml of 0.5% Evans blue dye per kg of weight) through a cephalic vein to enhance assessment of the cutaneous IgE antibodies. Serial dilutions of 100 μl of each sample were injected intradermally on the abdominal skin to establish the titer. After 15-20 min, the allergic response was determined by measuring the size of the blue wheal reaction (maximum length and width). An appropriate negative control (buffer diluted in physiological saline) was included for each animal tested. Repeated tests with thioredoxin, NTR, NADPH and pepsin alone were consistently negative.
# pepsin [3] = assay: Assay for stability to pepsin (simulated gastric fluid); assay type: in vitro ADME, porcine; settings: 37° C.
# Method: BLG (1 mg/ml) or milk (15 mg/ml) were mixed with simulated gastric fluid (SGF) to give 0.32% pepsin and incubated for the indicated times at 37° C. as described in Example 39 and Astwood et al., 1996, herein incorporated by reference. The digested proteins were analyzed by reducing SDS-PACE (10 to 20% gradient gel) also as described in Laemmli, 1970, herein incorporated by reference.
# trypsin = assay: Trypsin proteolysis of purified milk allergen proteins; assay type: biochemical; settings: 2 μg trypsin
# Method: The analysis of the reduction was done using the mBBr/SDS-PAGE techniques. Further in this study, when 10 μg of an NTS reduced purified milk allergen protein, β-lactoglobulin (Sigma Chemical Co.), was treated with 2 μg of trypsin, proteolysis was 100% as compared with only 50% for the identically trypsin treated oxidized β-lactoglobulin. […] However, 10 μg of purified […] reduced by the NTS was proteolyzed 80% by trypsin. Also 10 μg of α-lactalbumin reduced by 0.8 μg of thioredoxin and 0.5 mM DTT was 100% proteolyzed by 2 μg of trypsin.
# NADP/thioredoxin system = NADP/thioredoxin system (Escherichia coli, UniProt P0AA25)
# Method: Reactions were carried out in physiological buffered saline solution (PBS; i.e., 10 mM Na2HPO4, 1.8 mM KH2PO4, 2.7 mM KCl and 137 mM NaCl, pH 7.4) containing either 10 μg of pure target protein or 50 μg of raw milk. The reaction mixtures were incubated at 4° C. overnight or at 37° C. and 55° C. for 45 min. For complete reduction, samples were incubated in PBS containing 5 μl of 100 mM DTT and boiled 5 min. The reduced proteins were visualized on gels by mBBr labeling and gel electrophoresis as described below. The extent of reduction was determined by scanning the gels.
# Sulfhydryl groups were visualized as their fluorescent mBBr derivatives. mBBr, 10 μl of a 100 mM solution, was added to each protein sample. After 20 min of incubation, the reaction was stopped by adding 10 μl of 100 mM 2-mercaptoethanol, 10 μl of 20% SDS and 20 μl of SDS/PAGE sample buffer containing 80% (v/v) glycerol and 0.005% bromophenol blue. Proteins were then separated by SDS/PAGE (10-20% acrylamide gradient) as described below. After electrophoresis, gels were placed in 12% trichloroacetic acid for 1 hr for fixation and then soaked overnight or longer in 40% (v/v) methanol and 10% (v/v) acetic acid with several changes to remove excess mBBr. The destained gels were then placed under 365 nm UV light to visualize fluorescent bands. […]
# Acetylcholine Receptor = molecular target: T1, Acetylcholine Receptor (Mus musculus, UniProt P02716+P04756+P04760); assay type: binding; settings: cells treated with reductant, washed, then toxin; no reductant = 100
# T1 construct: Mouse cells, line C2, were grown as described by Gu et al; endogenous in cells; host or cells: mouse cell line C2, after fusion medium (myotubes)
# castor seed 2S protein = assay type: biochemical, Ricinus communis; settings: 20 min at 25° C.
# T1 sequence (P04760 23-519): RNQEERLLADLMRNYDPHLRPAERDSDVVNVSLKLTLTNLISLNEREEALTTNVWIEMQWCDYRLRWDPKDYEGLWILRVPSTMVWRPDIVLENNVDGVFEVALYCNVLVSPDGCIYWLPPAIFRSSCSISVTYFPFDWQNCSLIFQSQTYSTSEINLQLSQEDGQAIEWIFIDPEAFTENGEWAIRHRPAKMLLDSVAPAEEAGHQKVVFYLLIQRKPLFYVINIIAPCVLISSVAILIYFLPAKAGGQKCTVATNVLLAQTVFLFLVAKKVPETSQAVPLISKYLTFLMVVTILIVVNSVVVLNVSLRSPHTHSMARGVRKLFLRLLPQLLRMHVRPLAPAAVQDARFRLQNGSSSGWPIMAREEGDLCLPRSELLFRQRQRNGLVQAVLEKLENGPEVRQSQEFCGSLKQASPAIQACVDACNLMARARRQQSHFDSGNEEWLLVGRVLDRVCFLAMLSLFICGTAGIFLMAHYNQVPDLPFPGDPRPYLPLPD
# T1 sequence (P02716 25-520): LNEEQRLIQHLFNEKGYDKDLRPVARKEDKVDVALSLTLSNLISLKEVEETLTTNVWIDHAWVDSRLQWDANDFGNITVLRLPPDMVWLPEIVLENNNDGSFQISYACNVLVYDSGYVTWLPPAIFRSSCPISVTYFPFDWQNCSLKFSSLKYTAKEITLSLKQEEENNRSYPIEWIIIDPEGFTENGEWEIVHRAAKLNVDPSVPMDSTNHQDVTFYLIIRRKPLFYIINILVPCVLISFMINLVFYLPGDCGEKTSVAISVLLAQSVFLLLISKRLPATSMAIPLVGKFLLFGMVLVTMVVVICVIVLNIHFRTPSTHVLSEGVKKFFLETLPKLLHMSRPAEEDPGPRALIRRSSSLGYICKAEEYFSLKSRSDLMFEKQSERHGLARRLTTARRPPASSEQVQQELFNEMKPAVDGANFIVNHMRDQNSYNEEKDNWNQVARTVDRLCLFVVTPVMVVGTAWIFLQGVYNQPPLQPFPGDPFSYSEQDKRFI
# T1 sequence (P09690 24-501, further chain): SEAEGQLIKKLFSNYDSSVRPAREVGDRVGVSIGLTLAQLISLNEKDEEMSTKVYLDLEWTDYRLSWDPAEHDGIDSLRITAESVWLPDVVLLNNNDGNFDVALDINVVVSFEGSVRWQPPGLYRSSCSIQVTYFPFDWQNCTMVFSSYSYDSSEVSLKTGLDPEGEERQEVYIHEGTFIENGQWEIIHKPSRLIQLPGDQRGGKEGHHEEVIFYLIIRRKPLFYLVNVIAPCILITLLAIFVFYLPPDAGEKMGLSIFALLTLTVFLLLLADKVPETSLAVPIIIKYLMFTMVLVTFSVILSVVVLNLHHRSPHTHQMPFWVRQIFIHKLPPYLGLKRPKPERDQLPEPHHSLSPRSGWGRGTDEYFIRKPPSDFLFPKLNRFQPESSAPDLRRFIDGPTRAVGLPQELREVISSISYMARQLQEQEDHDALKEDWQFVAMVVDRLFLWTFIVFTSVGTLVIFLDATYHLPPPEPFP
# T1 sequence (P04756 21-457): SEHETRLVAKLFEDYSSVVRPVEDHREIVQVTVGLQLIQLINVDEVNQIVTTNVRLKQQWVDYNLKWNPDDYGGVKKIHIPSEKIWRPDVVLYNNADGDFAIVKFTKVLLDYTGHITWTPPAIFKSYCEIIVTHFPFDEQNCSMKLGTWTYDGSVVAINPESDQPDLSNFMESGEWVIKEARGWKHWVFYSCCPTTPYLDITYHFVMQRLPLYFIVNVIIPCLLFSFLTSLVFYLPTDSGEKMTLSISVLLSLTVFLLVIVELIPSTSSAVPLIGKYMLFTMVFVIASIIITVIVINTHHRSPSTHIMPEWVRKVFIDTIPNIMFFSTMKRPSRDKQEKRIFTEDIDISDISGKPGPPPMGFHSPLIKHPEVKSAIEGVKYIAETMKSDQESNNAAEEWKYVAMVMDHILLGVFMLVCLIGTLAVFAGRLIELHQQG
compound,measurement,setting,value
reduced form of BLG: BLG reduced by either NTS or DTT,time to full reoxidation in air,[1],3 days
"β-lactoglobulin: bovine β-lactoglobulin, major milk allergen; Control = untreated BLG in Tables XVIII, XXI-XXIV",time resisting digestion,pepsin [2],at least 60 min
same,share of the total wheal-inducing activity of milk,atopic dogs,80%
same,half-life in SGF,pepsin [3],about 2 hours
same,proteolysis by trypsin,trypsin; 10 μg oxidized protein,50%
same,proteolysis by trypsin,trypsin; 10 μg protein reduced by the NTS,100%
same,time BLG remained reduced,NADP/thioredoxin system,2 days
"O[C@H](CS)[C@H](O)CS (racemic) [DTT, dithiothreitol]","% Binding, Treatment C",Acetylcholine Receptor,85.0%
same,Relative Reduction (%),castor seed 2S protein,67%

# Source: patent publication US6677433B2 (The Regents of the University of California, priority 2001, dated 2004)
